# Experimental data taken from ChEMBL document CHEMBL1201862, “PubChem BioAssay data set” (2004).
# Active and inactive are the calls of the source.
# Legend:
# Cytochrome P450 2D6 = Cytochrome P450 2D6 (Homo sapiens, UniProt P10635); assay: qHTS Assay for Inhibitors and Substrates of Cytochrome P450 2D6. [Related pubchem assays: 410 ]; format: ADME; conditions: read-out: Potency
# Cytochrome P450 2C19 = Cytochrome P450 2C19 (Homo sapiens, UniProt P33261); assay: qHTS Assay for Inhibitors and Substrates of Cytochrome P450 2C19. [Related pubchem assays: 410 ]; format: ADME; conditions: read-out: Potency
# Cytochrome P450 2C19, sequence (P33261 whole entry): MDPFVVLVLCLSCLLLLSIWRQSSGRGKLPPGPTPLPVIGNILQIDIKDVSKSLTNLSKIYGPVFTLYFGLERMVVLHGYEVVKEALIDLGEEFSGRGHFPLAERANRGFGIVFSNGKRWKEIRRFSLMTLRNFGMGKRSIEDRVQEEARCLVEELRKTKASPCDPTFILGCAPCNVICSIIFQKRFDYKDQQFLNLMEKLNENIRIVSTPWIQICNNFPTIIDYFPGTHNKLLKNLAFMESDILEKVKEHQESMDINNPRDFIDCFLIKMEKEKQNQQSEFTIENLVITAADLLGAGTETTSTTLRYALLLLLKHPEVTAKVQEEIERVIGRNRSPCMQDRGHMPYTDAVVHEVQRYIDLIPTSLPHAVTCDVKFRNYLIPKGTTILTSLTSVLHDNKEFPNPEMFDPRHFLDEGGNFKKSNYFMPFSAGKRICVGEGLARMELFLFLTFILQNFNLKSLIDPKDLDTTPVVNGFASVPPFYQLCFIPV
# Cytochrome P450 3A4 = Cytochrome P450 3A4 (Homo sapiens, UniProt P08684); conditions: Potency;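 note: confirmatory qHTS run detecting inhibitors and substrates of CYP3A4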
# Cytochrome P450 3A4, sequence (P08684 whole entry): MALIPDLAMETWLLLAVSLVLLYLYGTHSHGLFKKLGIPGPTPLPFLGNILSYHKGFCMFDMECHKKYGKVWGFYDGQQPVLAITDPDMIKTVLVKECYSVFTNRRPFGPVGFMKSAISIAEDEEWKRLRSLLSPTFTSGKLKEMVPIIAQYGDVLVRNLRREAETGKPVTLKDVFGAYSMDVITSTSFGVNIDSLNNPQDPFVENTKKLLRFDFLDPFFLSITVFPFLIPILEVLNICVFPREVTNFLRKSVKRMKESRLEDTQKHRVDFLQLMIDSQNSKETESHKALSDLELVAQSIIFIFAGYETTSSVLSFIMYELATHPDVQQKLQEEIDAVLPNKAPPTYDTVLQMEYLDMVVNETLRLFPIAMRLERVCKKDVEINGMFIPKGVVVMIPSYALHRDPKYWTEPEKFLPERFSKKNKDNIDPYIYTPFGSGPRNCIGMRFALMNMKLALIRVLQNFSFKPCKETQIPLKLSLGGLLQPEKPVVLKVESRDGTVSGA
# [1] = biological target: Aryl hydrocarbon receptor (Homo sapiens, UniProt P35869); assay: Luminescence-based cell-based high throughput dose response assay for activators of the Aryl Hydrocarbon Receptor (AHR). [Related pubchem assays: 2796 (Primary screen (AHR activators in singlicate)), 2845 (Confirmation screen (AHR activators in triplicate)), 434939 (Counterscreen (PXR activators in triplicate)), 2804 (Summary (AHR activators))]; format: ADME
# Aryl hydrocarbon receptor, sequence (P35869 whole entry): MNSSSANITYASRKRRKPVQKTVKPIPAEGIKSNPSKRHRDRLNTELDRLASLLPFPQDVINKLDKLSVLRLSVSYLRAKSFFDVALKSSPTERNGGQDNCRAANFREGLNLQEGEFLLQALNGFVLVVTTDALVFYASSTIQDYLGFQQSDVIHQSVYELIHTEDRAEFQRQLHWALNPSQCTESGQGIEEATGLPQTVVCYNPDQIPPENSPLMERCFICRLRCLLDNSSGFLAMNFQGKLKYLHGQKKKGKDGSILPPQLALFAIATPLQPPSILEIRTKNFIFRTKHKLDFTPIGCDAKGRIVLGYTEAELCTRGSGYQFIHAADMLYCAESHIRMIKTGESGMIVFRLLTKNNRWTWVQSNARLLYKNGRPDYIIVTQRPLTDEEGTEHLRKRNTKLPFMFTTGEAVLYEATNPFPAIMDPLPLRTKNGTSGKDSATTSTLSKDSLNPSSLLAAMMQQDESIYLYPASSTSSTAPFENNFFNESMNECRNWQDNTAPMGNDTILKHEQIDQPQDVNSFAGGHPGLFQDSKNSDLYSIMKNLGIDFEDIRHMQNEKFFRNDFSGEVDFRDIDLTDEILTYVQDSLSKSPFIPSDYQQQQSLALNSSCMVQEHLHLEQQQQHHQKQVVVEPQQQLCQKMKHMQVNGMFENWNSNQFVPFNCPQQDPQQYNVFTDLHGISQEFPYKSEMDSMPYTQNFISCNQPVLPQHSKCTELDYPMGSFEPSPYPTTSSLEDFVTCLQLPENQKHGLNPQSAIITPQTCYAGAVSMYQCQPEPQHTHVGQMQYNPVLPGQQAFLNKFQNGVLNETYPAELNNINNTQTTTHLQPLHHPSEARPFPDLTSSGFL
# Danio rerio = assay: In Vivo Angiogenesis Dose-Response Confirmation. [Related pubchem assays: 732 (Assay preceding this confirmatory assay.)]; format: functional, organism-based
# Estrogen receptor = biological target: T1, Estrogen receptor (Homo sapiens, UniProt P03372);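 note: potency for inhibiting coactivator peptide recruitment to the receptor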
# T1 sequence (P03372 whole entry): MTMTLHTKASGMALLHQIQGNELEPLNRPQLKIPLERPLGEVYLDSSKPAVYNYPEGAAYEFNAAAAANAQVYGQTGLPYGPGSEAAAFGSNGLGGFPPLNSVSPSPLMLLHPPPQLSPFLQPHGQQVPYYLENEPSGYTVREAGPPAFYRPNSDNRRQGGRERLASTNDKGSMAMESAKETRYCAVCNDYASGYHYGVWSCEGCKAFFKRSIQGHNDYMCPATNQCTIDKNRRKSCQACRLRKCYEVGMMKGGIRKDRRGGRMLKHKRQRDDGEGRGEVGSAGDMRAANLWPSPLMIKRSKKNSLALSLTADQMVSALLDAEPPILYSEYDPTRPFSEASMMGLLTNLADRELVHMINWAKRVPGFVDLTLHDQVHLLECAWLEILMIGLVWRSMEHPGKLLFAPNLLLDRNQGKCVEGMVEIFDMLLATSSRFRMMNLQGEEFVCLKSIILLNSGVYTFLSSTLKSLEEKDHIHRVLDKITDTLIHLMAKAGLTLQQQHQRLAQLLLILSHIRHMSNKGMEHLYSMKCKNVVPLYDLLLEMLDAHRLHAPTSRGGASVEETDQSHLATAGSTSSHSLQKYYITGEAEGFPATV
# Estrogen receptor beta [2] = biological target: T2, Estrogen receptor beta (Homo sapiens, UniProt Q92731);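 note: recombinant ER-beta bound to coactivator SRC1 peptide in presence of estradiol agonist; inhibitors block coactivator peptide binding and lower the FRET signal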
# T2 sequence (Q92731 whole entry): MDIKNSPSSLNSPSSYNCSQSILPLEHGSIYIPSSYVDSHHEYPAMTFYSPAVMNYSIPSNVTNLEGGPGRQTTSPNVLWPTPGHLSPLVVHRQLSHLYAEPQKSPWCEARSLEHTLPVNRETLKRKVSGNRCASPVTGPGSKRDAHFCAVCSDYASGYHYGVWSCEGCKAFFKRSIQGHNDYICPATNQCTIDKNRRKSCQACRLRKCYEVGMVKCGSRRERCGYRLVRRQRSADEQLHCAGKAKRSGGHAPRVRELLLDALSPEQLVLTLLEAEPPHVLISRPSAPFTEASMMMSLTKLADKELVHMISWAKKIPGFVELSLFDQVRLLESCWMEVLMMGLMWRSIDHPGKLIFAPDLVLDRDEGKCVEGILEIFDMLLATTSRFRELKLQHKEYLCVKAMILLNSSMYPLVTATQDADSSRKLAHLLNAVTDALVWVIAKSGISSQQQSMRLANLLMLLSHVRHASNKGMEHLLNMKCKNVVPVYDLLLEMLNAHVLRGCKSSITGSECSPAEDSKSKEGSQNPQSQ
# Estrogen receptor beta [3] = biological target: T2, Estrogen receptor beta; assay: ERβ–SRC-3 coactivator interaction inhibitors, confirmation, orthogonal assay, biochemical, ELISA, streptavidin-HRP readout (AID 1060)
# Cytochrome P450 2D6, sequence (P10635 whole entry): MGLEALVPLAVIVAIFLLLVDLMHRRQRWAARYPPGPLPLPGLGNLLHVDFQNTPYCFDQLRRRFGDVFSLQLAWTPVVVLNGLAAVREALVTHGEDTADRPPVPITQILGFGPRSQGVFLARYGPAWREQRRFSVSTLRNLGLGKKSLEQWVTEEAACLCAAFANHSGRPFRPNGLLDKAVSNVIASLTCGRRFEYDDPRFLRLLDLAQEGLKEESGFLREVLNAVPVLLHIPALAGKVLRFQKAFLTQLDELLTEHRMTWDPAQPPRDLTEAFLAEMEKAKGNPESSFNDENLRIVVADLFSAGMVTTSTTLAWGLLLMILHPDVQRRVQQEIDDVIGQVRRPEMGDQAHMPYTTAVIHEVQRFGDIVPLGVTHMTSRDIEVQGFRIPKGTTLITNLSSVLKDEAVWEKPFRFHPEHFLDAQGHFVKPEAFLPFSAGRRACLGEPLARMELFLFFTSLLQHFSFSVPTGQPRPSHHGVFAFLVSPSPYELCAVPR
compound,measurement,setting,value
COC(=O)N1CCc2cc(OC)c(OC)cc2C1Cc1ccc(OC)cc1 (centres undefined),AC50,Cytochrome P450 2D6,3.16 µM (inconclusive)
same,AC50,Cytochrome P450 2C19,3.98 µM (inconclusive)
same,AC50,Cytochrome P450 3A4,3.98 µM (inconclusive)
CCCc1nn(C)c(C(=O)Nc2cccc3ccccc23)c1Cl,EC50,[1],5.22 µM (active)
O=C1Nc2ccccc2/C1=C1/Nc2ccc(Br)cc2/C1=N\OCCN1CCNCC1,IC50,Danio rerio,> 30 µM (not active)
ONC1c2cc(Cl)ccc2-c2c(Cl)cc(Cl)cc21 (centres undefined),IC50,Danio rerio,< 0.3 µM (not active)
O=C(CSc1nc2scc(-c3ccco3)c2c(=O)n1-c1ccccc1)NCC1CCCO1 (centres undefined),IC50,Estrogen receptor,30.1 µM (not active)
same,IC50,Estrogen receptor beta [2],22.1 µM (active)
same,IC50,Estrogen receptor beta [3],102 µM (not active)
